Test results reported in patent US20230391745A1, “SMALL MOLECULE DEGRADERS OF THE BROMODOMAIN AND PHD FINGER TRANSCRIPTION FACTOR” (Regents of the University of Minnesota, priority 2022, published 2023).
Like-named read-outs stand apart in the source and are kept apart here.

Legend:
CECR2 bromodomain = target: T1, CECR2 bromodomain (Homo sapiens, UniProt Q9BXF3); assay: AlphaScreen assay with CECR2 bromodomain and biotinylated histone H4 KAc5,8,12,16 peptide; assay type: binding
T1 construct: His; purchased Reaction Biology RD-11-210
T1 sequence (Q9BXF3 434-538 limits assumed): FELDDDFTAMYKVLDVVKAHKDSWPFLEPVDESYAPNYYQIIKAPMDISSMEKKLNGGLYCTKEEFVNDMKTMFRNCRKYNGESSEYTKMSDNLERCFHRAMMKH

BPTF bromodomain = target: T2, BPTF bromodomain (Homo sapiens, UniProt Q12830); assay: AlphaScreen assay with BPTF bromodomain and biotinylated histone H4 KAc5,8,12,16 peptide; assay type: binding; conditions: average of two technical replicates with N = 3 unless otherwise indicated, read-out: BPTF BD IC50
T2 construct: His9-tagged BPTF bromodomain was expressed and purified as described previously; His9; made in house
Procedure: General procedure for AlphaScreen assay. His9-tagged BPTF bromodomain was expressed and purified as described previously. […] The AlphaScreen assay procedures were adapted from the manufacturers protocol (PerkinElmer, USA). […] The biotinylated Histone H4 KAc5,8,12,16 peptide was purchased from EpiCypher (Cat. #12-0034), with the sequence:
Ac-SGRGK(Ac)GGK(Ac)GLGK(Ac)GGAK(Ac)RHRKVLR-Peg(Biot).
All reagents were diluted in the assay buffer (50 mM HEPES-Na^+ (ChemImpex), 100 mM NaCl (SigmaAldrich), 0.05% CHAPS (RPI), 0.1% BSA (SigmaAldrich), pH 7.4).
3-fold serial dilutions were prepared with varying concentrations of the compounds and a fixed protein concentration, keeping the final DMSO concentration at 0.25%. […] 5 μL of the biotinylated peptide solution was then added to the wells. 10 μL of pre-mixed nickel chelate acceptor beads and streptavidin donor beads were added to each well under low light conditions (<100 lux), to a final concentration of 20 μg/mL. The plate was sealed and incubated for 30 minutes in the dark. It was then read in AlphaScreen mode (excitation time=100 ms, integration time=300 ms, output: counts/s) using a Tecan Spark plate reader. Each compound was run in two technical replicates and the data was normalized against 0 μM inhibitor signal to obtain the % normalized AlphaScreen signal. IC50 values were calculated in GraphPad Prism 9 using a sigmoidal 4-parameter logistic (4PL) curve fit.
To validate our chosen exit vectors, an AlphaScreen assay was used to measure binding affinity of our degraders with the BPTF bromodomain.

BRD9 bromodomain = target: T3, BRD9 bromodomain (Homo sapiens, UniProt Q9H8M2); assay: AlphaScreen assay with BRD9 bromodomain and biotinylated histone H4 KAc5,8,12,16 peptide; assay type: binding
T3 construct: His; purchased Reaction Biology RD-11-214
T3 sequence (Q9H8M2 136-240 limits assumed): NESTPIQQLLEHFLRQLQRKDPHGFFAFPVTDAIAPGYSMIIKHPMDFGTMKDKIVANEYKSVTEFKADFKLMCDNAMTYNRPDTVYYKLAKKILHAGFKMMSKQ

[1] = target: T4, GST-BRD9 and His-tagged CRBN-DDB1 (Homo sapiens, UniProt Q96SW2+Q9H8M2); assay: In vitro AlphaScreen ternary complex assay, BRD9; assay type: binding; conditions: GST-BRD9, His-CRBN-DDB1, varying degrader concentrations
T4 construct: GST-tagged bromodomains (BPTF, BRD9, CECR2 and PCAF) and His-tagged CRBN; purchased Reactive Biology Corp RD-11-187
T4 sequence (Q96SW2 40-442 limits assumed, one chain of several): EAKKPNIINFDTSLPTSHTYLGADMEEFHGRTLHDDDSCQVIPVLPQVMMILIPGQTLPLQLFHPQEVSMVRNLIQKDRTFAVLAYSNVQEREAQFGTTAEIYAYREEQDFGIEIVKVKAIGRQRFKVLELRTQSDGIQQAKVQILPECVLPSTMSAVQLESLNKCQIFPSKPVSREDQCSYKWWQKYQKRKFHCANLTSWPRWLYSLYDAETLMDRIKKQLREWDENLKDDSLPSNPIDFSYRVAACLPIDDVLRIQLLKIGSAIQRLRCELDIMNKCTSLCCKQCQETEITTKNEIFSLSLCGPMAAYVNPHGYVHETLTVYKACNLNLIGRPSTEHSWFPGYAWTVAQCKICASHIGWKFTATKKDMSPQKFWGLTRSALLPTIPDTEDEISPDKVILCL
T4 sequence (Q16531 whole entry partner, one chain of several): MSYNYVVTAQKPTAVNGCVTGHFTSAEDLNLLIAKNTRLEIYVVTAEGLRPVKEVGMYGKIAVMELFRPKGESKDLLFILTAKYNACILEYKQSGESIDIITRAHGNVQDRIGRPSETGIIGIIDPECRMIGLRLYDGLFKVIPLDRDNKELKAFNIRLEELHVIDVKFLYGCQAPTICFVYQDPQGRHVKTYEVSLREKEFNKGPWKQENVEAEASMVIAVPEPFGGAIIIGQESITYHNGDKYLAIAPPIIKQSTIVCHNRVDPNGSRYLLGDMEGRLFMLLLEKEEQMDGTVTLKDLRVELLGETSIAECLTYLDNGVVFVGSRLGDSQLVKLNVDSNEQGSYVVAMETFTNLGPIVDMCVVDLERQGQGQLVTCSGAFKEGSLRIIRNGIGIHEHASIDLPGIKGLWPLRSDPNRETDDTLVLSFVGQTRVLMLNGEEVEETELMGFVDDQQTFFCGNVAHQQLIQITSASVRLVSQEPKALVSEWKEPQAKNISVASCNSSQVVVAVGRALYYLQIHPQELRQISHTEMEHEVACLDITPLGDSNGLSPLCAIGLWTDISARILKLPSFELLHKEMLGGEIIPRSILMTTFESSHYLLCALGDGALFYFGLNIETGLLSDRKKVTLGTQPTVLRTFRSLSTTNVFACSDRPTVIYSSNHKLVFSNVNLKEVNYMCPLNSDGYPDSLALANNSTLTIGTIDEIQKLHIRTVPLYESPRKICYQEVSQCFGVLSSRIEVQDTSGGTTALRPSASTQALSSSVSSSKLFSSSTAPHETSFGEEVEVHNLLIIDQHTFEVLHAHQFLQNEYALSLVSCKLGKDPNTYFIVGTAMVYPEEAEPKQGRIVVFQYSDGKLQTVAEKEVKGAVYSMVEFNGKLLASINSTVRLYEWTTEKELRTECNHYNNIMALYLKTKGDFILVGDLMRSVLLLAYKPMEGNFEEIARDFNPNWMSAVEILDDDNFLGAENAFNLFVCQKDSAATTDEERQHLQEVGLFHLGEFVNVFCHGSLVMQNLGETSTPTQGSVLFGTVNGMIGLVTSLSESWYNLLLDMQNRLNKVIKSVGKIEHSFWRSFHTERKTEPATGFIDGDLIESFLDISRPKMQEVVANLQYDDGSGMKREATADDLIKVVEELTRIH
Procedure: General procedure for in vitro ternary complex assay. His-tagged CRBN-DDB1 protein was prepared following the procedure reported by Matyskiela et al. GST-BPTF was purchased from BPS Biosciences (cat #31134), while GST-BRD9, GST-CECR2, and GST-PCAF were purchased from Reactive Biology Corp (cat #RD-11-187, cat #RD-11-194, and cat #RD-11-259 respectively). All reagents were diluted in assay buffer comprising 25 mM HEPES, pH 7.4, 100 mM NaCl, 0.1% BSA, and 0.05% tween20. An ECHO 650 (Labcyte Inc.) acoustic dispenser was used to generate a 10-point dilution curve from DMSO stocks of the degraders directly into a 384-well OptiPlate (PerkinElmer, Cat. #6007290) giving a final DMSO concentration of 0.3%. […]
Briefly, to a 384-well OptiPlate containing 5× degrader in triplicate was added 5 μL of a 5× solution of His-CRBN-DDB1 and GST-tagged bromodomain and then incubated at rt for 1 h. […] The plate was sealed and mixed on a MixMate (eppendorf) for 1 h at rt and then luminescence detection was collected on an Envision plate reader (PerkinElmer).
In vitro ternary complex formation via AlphaScreen. […] The AlphaScreen signal was measured at varying degrader concentrations and the amplitude of the maximum point on the curve was used as an indicator of ternary complex stability.

[2] = target: T5, Nluc-BPTF-BD fusion construct (Homo sapiens, UniProt Q12830+Q96SW2); assay: In-cell NanoBRET CRBN ternary complex assay with Nluc-BPTF-BD; assay type: cell-based; conditions: for BRET ratio, fold increase over DMSO (in-cell ternary complex formation): 1 μM degrader, C-terminal Nluc-BPTF-BD fusion, HEK293T cells; for Ternary complex formation with C-terminal Nluc/BPTF-BD fusion construct / Ternary complex formation with N-terminal Nluc/BPTF-BD fusion construct: 1 μM for 2 h, HEK293T cells pre-treated with MG-132
T5 construct: form ternary complexes with nanoluciferase-fused BPTF bromodomain and full-length BRD9 constructs; expressed in transfected cells; host or cells: HEK293T
T5 sequence (Q16531 whole entry, the tested form may be a part): as the sequence (Q16531 whole entry partner, one chain of several) above
T5 sequence (Q96SW2 whole entry, the tested form may be a part): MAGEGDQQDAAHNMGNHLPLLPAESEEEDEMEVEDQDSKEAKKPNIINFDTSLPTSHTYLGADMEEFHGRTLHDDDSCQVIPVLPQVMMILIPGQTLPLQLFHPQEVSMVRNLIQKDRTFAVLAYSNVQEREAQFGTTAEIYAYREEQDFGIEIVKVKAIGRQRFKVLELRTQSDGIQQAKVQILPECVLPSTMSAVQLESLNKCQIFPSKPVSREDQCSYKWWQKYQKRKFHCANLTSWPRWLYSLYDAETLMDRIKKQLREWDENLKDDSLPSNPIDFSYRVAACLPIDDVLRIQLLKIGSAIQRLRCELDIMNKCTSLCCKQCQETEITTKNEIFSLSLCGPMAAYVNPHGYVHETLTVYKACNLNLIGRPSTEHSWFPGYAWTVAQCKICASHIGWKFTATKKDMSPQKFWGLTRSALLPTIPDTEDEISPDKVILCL
Procedure: In-cell NanoBRET assay. NanoBRET experiments were carried out using the NanoBRET CRBN Ternary Complex Starter Kit (Cat #ND2720) according to the manufacturer's protocol (Promega NanoBRET™ CRBN Ternary Complex Assay TM615).^38 All assays were run in 384-well format. HEK293T cells were transfected to a 1:100 donor:acceptor (Nluc:Halotag vectors) ratio for both BPTF-BD and BRD9-FL vectors (see supporting information for the design of plasmids). Cells were re-plated, treated with the HaloTag 618 Ligand and treated with compounds as described in the manufacturer's procedure.
Cell culture. HEK293T cells were grown in a humidified 5% CO2 environment at 37° C. Cells were cultured in DMEM media (high-glucose, Gibco Cat. #11965-092) supplemented with 10% fetal-bovine serum (Cellgro Cat. #QB-110-001-101), Penicillin-Streptomycin (50 U/mL penicillin, 50 μg/mL streptomycin, Cellgro Cat. #15140-122). The cells were passaged to a 1:20 dilution by decanting suspended cells and dissociating adherent cells from cell culture flasks in 0.25% trypsin/EDTA (Gibco, Cat. #25200056) after 1 min incubation.
In-cell ternary complex formation and degradation of BPTF-BD via NanoBRET. After establishing in vitro ternary complex formation, a NanoBRET ternary complex assay was optimized to rank-order degraders in cells (FIG. 4A). This assay also serves as an indirect indicator of cellular permeability, which is often a major challenge for heterobifunctional degraders. Both N- and C-terminal fusions of Nanoluciferase (Nluc) and BPTF-BD with 11-amino acid linkers were designed. The vectors were transfected into HEK293T cells and compounds 4 and 5 were dosed at 1 μM for 2 h in cells pre-treated with the proteosome inhibitor MG-132. […] The C-terminal Nluc-BPTF-BD fusion construct was therefore used for subsequent experiments. Degraders were tested for ternary complex formation at 1 μM (FIG. 4B).

[3] = target: T6, GST-PCAF and His-tagged CRBN-DDB1 (Homo sapiens, UniProt Q92831+Q96SW2); assay: In vitro AlphaScreen ternary complex assay, PCAF; assay type: binding; conditions: His-CRBN-DDB1, varying degrader concentrations
T6 construct: GST-tagged bromodomains (BPTF, BRD9, CECR2 and PCAF) and His-tagged CRBN; purchased Reactive Biology Corp RD-11-259
T6 sequence (Q92831 723-827 limits assumed): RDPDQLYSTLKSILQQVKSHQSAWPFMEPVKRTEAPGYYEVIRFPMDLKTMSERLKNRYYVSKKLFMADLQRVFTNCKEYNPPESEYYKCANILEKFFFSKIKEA
T6 sequence (Q96SW2 40-442 limits assumed): as the sequence (Q96SW2 40-442 limits assumed, one chain of several) above
T6 sequence (Q16531 whole entry partner): as the sequence (Q16531 whole entry partner, one chain of several) above
Procedure: (§1) General procedure for in vitro ternary complex assay. His-tagged CRBN-DDB1 protein was prepared following the procedure reported by Matyskiela et al. GST-BPTF was purchased from BPS Biosciences (cat #31134), while GST-BRD9, GST-CECR2, and GST-PCAF were purchased from Reactive Biology Corp (cat #RD-11-187, cat #RD-11-194, and cat #RD-11-259 respectively). All reagents were diluted in assay buffer comprising 25 mM HEPES, pH 7.4, 100 mM NaCl, 0.1% BSA, and 0.05% tween20. An ECHO 650 (Labcyte Inc.) acoustic dispenser was used to generate a 10-point dilution curve from DMSO stocks of the degraders directly into a 384-well OptiPlate (PerkinElmer, Cat. #6007290) giving a final DMSO concentration of 0.3%. AlphaScreen glutathione coated donor and nickel chelate acceptor beads were purchased from PerkinElmer (Cat. #6765300 and 6760141 respectively).
(§2) Briefly, to a 384-well OptiPlate containing 5× degrader in triplicate was added 5 μL of a 5× solution of His-CRBN-DDB1 and GST-tagged bromodomain and then incubated at rt for 1 h. After incubation, 10 μL nickel chelate acceptor (20 μL/mL final concentration) and 10 μL glutathione donor beads (20 μL/mL final concentration) were added. The plate was sealed and mixed on a MixMate (eppendorf) for 1 h at rt and then luminescence detection was collected on an Envision plate reader (PerkinElmer).
(§3) In vitro ternary complex formation via AlphaScreen. The stability of the ternary complex is critical for degradation by heterobifunctional molecules. A ternary complex formation in vitro using an AlphaScreen-based assay (FIG. 3A) was therefore studied. In this experiment, anti-GST donor beads and nickel acceptor beads were paired with GST-tagged bromodomains (BPTF, BRD9, CECR2 and PCAF) and His-tagged CRBN. The AlphaScreen signal was measured at varying degrader concentrations and the amplitude of the maximum point on the curve was used as an indicator of ternary complex stability.

[4] = target: T7, GST-CECR2 and His-tagged CRBN-DDB1 (Homo sapiens, UniProt Q96SW2+Q9BXF3); assay: In vitro AlphaScreen ternary complex assay, CECR2; assay type: binding; conditions: GST-CECR2, His-CRBN-DDB1, varying degrader concentrations
T7 construct: GST-tagged bromodomains (BPTF, BRD9, CECR2 and PCAF) and His-tagged CRBN; purchased Reactive Biology Corp RD-11-194
T7 sequence (Q9BXF3 434-538 limits assumed): as the sequence (Q9BXF3 434-538 limits assumed) above
T7 sequence (Q96SW2 40-442 limits assumed): as the sequence (Q96SW2 40-442 limits assumed, one chain of several) above
T7 sequence (Q16531 whole entry partner): as the sequence (Q16531 whole entry partner, one chain of several) above
Procedure: as §1, §2, §3

[5] = target: T8, Nluc-BRD9-FL fusion construct (Homo sapiens, UniProt Q96SW2+Q9H8M2); assay: In-cell NanoBRET CRBN ternary complex assay with full-length BRD9; conditions: HEK293T cells
T8 sequence (Q9H8M2 whole entry, the tested form may be a part): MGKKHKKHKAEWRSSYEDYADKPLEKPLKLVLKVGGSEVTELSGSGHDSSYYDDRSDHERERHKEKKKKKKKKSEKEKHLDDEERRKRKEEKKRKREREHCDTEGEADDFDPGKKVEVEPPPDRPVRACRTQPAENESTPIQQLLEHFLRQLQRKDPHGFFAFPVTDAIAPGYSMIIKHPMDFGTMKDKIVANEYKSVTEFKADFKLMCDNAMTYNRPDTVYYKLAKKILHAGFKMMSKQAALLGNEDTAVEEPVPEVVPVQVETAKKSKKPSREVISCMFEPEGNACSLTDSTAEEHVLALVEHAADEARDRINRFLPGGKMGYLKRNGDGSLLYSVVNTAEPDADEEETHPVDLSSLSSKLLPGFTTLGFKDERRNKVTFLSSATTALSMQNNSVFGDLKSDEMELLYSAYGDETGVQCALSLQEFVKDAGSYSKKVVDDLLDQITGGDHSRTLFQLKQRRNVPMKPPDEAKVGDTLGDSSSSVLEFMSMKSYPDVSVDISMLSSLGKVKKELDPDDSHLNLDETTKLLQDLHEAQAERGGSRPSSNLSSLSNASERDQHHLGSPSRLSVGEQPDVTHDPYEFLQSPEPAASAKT
T8 sequence (Q96SW2 whole entry, the tested form may be a part): as the sequence (Q96SW2 whole entry, the tested form may be a part) above
T8 sequence (Q16531 whole entry partner, the tested form may be a part): as the sequence (Q16531 whole entry partner, one chain of several) above
Source text: (§4) In-cell ternary complex formation and degradation of full-length BRD9 via NanoBRET. […] Degradation of the Nluc-BRD9-FL construct was monitored under similar conditions as our BPTF study.

[6] = target: T8, Nluc-BRD9-FL fusion construct; assay: Degradation of Nluc-BRD9-FL construct by total donor luminescence; conditions: similar conditions as BPTF study (1 μM, 6 h), HEK293T cells
Source text: as §4

[7] = AlphaScreen, average of two technical replicates with N = 2 unless otherwise indicated, read-out: CECR2 BD IC50
[8] = AlphaScreen, average of two technical replicates with N = 2 unless otherwise indicated, read-out: BRD9 BD IC50

SMILES	IC50 (CECR2 bromodomain; [7]) [nM]	IC50 (BPTF bromodomain) [nM]	IC50 (CECR2 bromodomain) [nM]	IC50 (BRD9 bromodomain) [nM]	Ternary complex formation with BRD9 (AlphaScreen signal amplitude) [1]	BRET ratio, fold increase over DMSO (in-cell ternary complex formation) [2] [fold]	Ternary complex formation with PCAF (AlphaScreen signal amplitude) [3]	IC50 (BRD9 bromodomain; [8]) [nM]	Ternary complex formation with CECR2 (AlphaScreen signal amplitude) [4]	BRET ratio, fold over DMSO control (in-cell ternary complex formation) [5] [fold]	Ternary complex formation with C-terminal Nluc/BPTF-BD fusion construct [2]	Ternary complex formation with N-terminal Nluc/BPTF-BD fusion construct [2]	Degradation of the Nluc-BRD9-FL construct [6]
CN(C)CCCOc1ccc(-c2cc(NCCCn3cccn3)nc(S(C)(=O)=O)n2)cc1 [Compound 7, TP-238, reference compound]	33	430	–	–	–	–	–	–	–	–	–	–	–
Cn1ncc(Nc2ccc3c(c2)CCNC3)c(Cl)c1=O [Compound 1]	–	–	1670	556	–	–	–	–	–	–	–	–	–
Cn1ncc(Nc2ccc3c(c2)CCN(CCCCCCNC(=O)COc2cccc4c2C(=O)N(C2CCC(=O)NC2=O)C4=O)C3)c(Cl)c1=O (stereo not drawn) [Compound 3]	53	24 ± 9	–	–	drop in signal	3.5	drop in signal	21	drop in signal	–	–	–	–
Cn1ncc(Nc2ccc3c(c2)CN(CCOCCOCCNC(=O)COc2cccc4c2C(=O)N(C2CCC(=O)NC2=O)C4=O)CC3)c(Cl)c1=O (stereo not drawn) [Compound 6, N-(2-(2-(2-(7-((5-chloro-1-methyl-6-oxo-1,6-dihydropyridazin-4-yl)amino)-3,4-dihydroisoquinolin-2(1H)-yl)ethoxy)ethoxy)ethyl)-2-((2-(2,6-dioxopiperidin-3-yl)-1,3-dioxoisoindolin-4-yl)oxy)acetamide]	1460	121 ± 38	–	–	–	1.6	less stable ternary complexes	18	less stable ternary complexes	–	–	–	–
Cn1ncc(Nc2ccc3c(c2)CNCC3)c(Cl)c1=O [Compound 2]	1300	–	–	–	–	–	–	300	–	–	–	–	–
Cn1ncc(Nc2ccc3c(c2)CN(CCCCCCNC(=O)COc2cccc4c2C(=O)N(C2CCC(=O)NC2=O)C4=O)CC3)c(Cl)c1=O (stereo not drawn) [Compound 4, N-(6-(7-((5-chloro-1-methyl-6-oxo-1,6-dihydropyridazin-4-yl)amino)-3,4-dihydroisoquinolin-2(1H)-yl)hexyl)-2-((2-(2,6-dioxopiperidin-3-yl)-1,3-dioxoisoindolin-4-yl)oxy)acetamide]	485	158 ± 55	–	–	promiscuous	3.2	promiscuous	98	promiscuous	~2	showed ternary complex formation	did not	caused degradation of full-length BRD9, comparable to the dBRD9 control
Cn1ncc(Nc2ccc3c(c2)CCN(CCOCCOCCNC(=O)COc2cccc4c2C(=O)N(C2CCC(=O)NC2=O)C4=O)C3)c(Cl)c1=O (stereo not drawn) [Compound 5, N-(2-(2-(2-(6-((5-chloro-1-methyl-6-oxo-1,6-dihydropyridazin-4-yl)amino)-3,4-dihydroisoquinolin-2(1H)-yl)ethoxy)ethoxy)ethyl)-2-((2-(2,6-dioxopiperidin-3-yl)-1,3-dioxoisoindolin-4-yl)oxy)acetamide]	225	70 ± 23	–	–	–	2.3	less stable ternary complexes	63	less stable ternary complexes	–	showed ternary complex formation	did not	caused degradation of full-length BRD9, comparable to the dBRD9 control
